Reference: patent US20160274120A1, “METHODS OF DETERMINING WHETHER THE WNT SIGNALING PATHWAY IS UPREGULATED IN A TUMOR” (ICAHN SCHOOL OF MEDICINE AT MOUNT SINAI, priority 2009, published 2016)

Columns and labels:
Format in all cases: cell-based, human
[1] = test system: TCF reporter activity; assay: TCF mediated luciferase reporter activity (TOP/FOP) in NSCLC cell lines
Description: 24 hours before infection, stable reporter cell lines expressing TOP or FOP TCF luciferase and renilla luciferase were plated in 6 well plates at I×IO^5 cells/well. The following day cells were infected with lentiviruses expressing different Wnt antagonists, selected with 2 μg/ml puromycin for 3 days, lysed and processed for luciferase reporter assay using the dual luciferase reporter Kit (Promega) according to the manufacturer's protocol. Luciferase reporter activity was calculated by dividing the ratio TOP/RL by the FOP/RL ratio. Results were normalized to the results with vector transduced cultures.
analysis, cells were co-infected with TOP or FOP firefly luciferase mixed with a lentivirus expressing renilla luciferase (RL) used to normalize for infection efficiency (1:20-1:40 ratio). To assess the effects of FRP1 and DKK1 on TCF luciferase reporter activity, stable reporter cell lines were plated in 6 well plates and infected with vector, FRP1 or DKK1 lentiviruses. Cells were selected for 3 days with puromycin, lysed and processed for dual luciferase analysis. To generate stable inducible lines, cells were infected consecutively with tetracycline trans-activator (tTa) expressing lentivirus, selected for two weeks with 5-10 μg/ml blasticidin, followed by a second infection with lentiviruses expressing inducible FRP1, DKK1, DNTCF-4 or DNTCF-4-mOrange or empty vector, and selected for 4-7 days in 2 μg/ml puromycin in the presence of 10 ng/ml doxycycline. For induction of the antagonists, cells were trypsinized, washed with PBS and plated into 10 cm plates in the presence or absence of doxycyclin. Control cells expressing tTa or empty vector were processed in the same way. All infections were performed for 16 hr in the presence of 8 μg/ml polybrene.

[2] = test system: Wnt3a; assay: shRNA knockdown quantification of Wnt3a mRNA; settings: H1819 cells, lentiviral shRNA
Text: (§1) An shRNA construct targeting human Wnt2 was obtained from Open Biosystems. The 21 bp sequence was 5′-[…]-3′ (SEQ ID NO: 1). An shRNA construct targeting GFP containing 21 bp sequence 5′ […]-3′ (SEQ ID NO: 2), was obtained from Addgene. An shRNA construct targeting human Wnt3a was generated and had the following sequence 5′-GGCGTGGCTTCTGCAGAA-3′ (SEQ ID NO: 61). Viruses were produced in 293T cells using FuGENE 6 (Roche) as described above.
(§2) Total RNA was isolated from cells using the Trizol Reagent (Invitrogen) according to the manufacturer's protocol. Semi-quantitative RT-PCR screen was performed using One Step RT-PCR Kit (Invitrogen) according to the manufacturer's protocol. PCR products were separated on 1% agarose gel. 5 μg total RNA was reverse transcribed using Superscript II reverse transcriptase (Invitrogen). Quantitative PCR was performed using SybrGreen 2× master mix (Roche) on a MJ Opticon or Stratagene MxPro3005. 50 ng cDNA were amplified as follows: 94° C. for 15 min, 94° C. for 15 s, 60° C. for 30 s, 72° C. for 1 min. Steps 2 through 4 were repeated for 40 cycles. Each reaction was performed in duplicate, and results of 3 independent experiments were used for statistical analysis. Relative mRNA expression levels were quantified using the ΔΔC(t) method (Pfaffl, 2001). Results were normalized to those for TATA Binding Protein (TBP). Primer sequences can be found in Tables 4 and 5.

[3] = test system: axin2; assay: Real time PCR quantification of axin2 mRNA expression in NSCLC cells
Description: as §2

[4] = test system: Wnt2; assay: shRNA knockdown quantification of Wnt2 mRNA; settings: H23 cells, lentiviral shRNA
Text: as §1, §2

Substance	TCF mediated luciferase reporter activity ([1]; H1819 cells, Wnt3a knockdown)	knock down of Wnt3a mRNA expression [2] [%]	axin2 expression ([3]; H1819 cells, Wnt3a knockdown)	TCF mediated luciferase reporter activity ([1]; H23 cells, Wnt2 knockdown)	axin2 expression ([3]; H23 cells, Wnt2 knockdown)	knock down of Wnt2 mRNA expression [4] [%]
Wnt3a shRNA: shRNA construct targeting human Wnt3a, 5′-GGCGTGGCTTCTGCAGAA-3′ (SEQ ID NO: 61) [reference compound]	significant decrease	70	significant decrease			
Wnt2 shRNA: shRNA construct targeting human Wnt2 from Open Biosystems, 5′-GCTCATGTACTCTCAGGACAT-3′ (SEQ ID NO: 1) (GCTCATGTACTCTCAGGDCAT; chemistry not fully specified) [reference compound]				significant decrease	significant decrease	80
